Assay results taken from patent publication EP3638219B1, “COMPOSITION COMPRISING TERPINENE-4-OL FOR THE TREATMENT OF DEMODICOSIS” (priority 2017, dated 2018).

How the values were obtained:
[1] = Physical stability of terpinen-4-ol in aqueous media (phase separation, clarity); type: physicochemical
Description: The compositions according to the invention are physically stable, i.e. clear, transparent and without precipitates, and substantially retain the initial content of the initial ingredient.
For example, on a lab scale, terpinen-4-ol and a mixture of PPG-26 buteth-26 (b2), PEG-40 hydrogenated castor oil (b3) and trideceth-9 (b4) were mixed in water and stirred for about 30 minutes. Cocamidopropyl betaine was then added and a clear solution was obtained, which was verified as stable.

demodex = conditions: components of TTO; WO06119174 A1 and WO09032773 A2; cited from earlier work

CC1=CCC(O)(C(C)C)CC1 (stereo not shown) [terpinen-4-ol]
behaviour in aqueous media ([1]; concentrations below 2% in weight/weight of the composition, in the presence of commonly used emulsifiers and surfactants): tends to separate from aqueous media | behaviour in aqueous media ([1]; in the presence of Tween 20 in a weight ratio to terpinen-4-ol up to 5:1): two-phase system | activity against demodex in vitro (demodex): active

C=C(C)C1CC=C(C)C(=O)C1 (stereo not shown) [carvone, reference compound]
activity against demodex in vitro (demodex): active
